Results from PubChem BioAssay AID1963438 (Molecular Pharmacology Branch, DTP, NCI, 2024).

System: NCI-H510 multicellular tumor spheroid growth, % test/control
Experiment: Anticancer human tumor NCI-H510 cell line growth inhibition [Asc];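 also: spheroids exposed to agents for 7 days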;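 as to viability, T/C: 100% = DMSO vehicle control wells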
Conditions: for IC50: curve of first compound; for viability, T/C: stronger effect = lower value; active = viability on the fitted dose curve at most 10% of control; inactive = the rest
Method in brief: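 Tumor cells were grown as multicellular spheroids with stromal HUVEC and mesenchymal stem cells and treated singly or in combination. Concentrations fell in half-log steps from the clinical Cmax, or from 10 microM where none was known.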

[1] = second compound 0.03 µM, first compound 0.0316 µM
[2] = second compound 0.03 µM, first compound 0.1 µM
[3] = second compound 0.03 µM, first compound 0.316 µM
[4] = second compound 0.03 µM, first compound 1 µM
[5] = second compound 0.03 µM, first compound 3.16 µM
[6] = second compound 0.03 µM, first compound 10 µM
[7] = second compound 0.0949 µM, first compound 0.0316 µM
[8] = second compound 0.0949 µM, first compound 0.1 µM
[9] = second compound 0.0949 µM, first compound 0.316 µM
[10] = second compound 0.0949 µM, first compound 1 µM
[11] = second compound 0.0949 µM, first compound 3.16 µM
[12] = second compound 0.0949 µM, first compound 10 µM
[13] = second compound 0.3 µM, first compound 0.0316 µM
[14] = second compound 0.3 µM, first compound 0.1 µM
[15] = second compound 0.3 µM, first compound 0.316 µM
[16] = second compound 0.3 µM, first compound 1 µM
[17] = second compound 0.3 µM, first compound 3.16 µM
[18] = second compound 0.3 µM, first compound 10 µM
[19] = second compound 0.949 µM, first compound 0.0316 µM
[20] = second compound 0.949 µM, first compound 0.1 µM
[21] = second compound 0.949 µM, first compound 0.316 µM
[22] = second compound 0.949 µM, first compound 1 µM
[23] = second compound 0.949 µM, first compound 3.16 µM
[24] = second compound 0.949 µM, first compound 10 µM
[25] = second compound 3 µM, first compound 0.0316 µM
[26] = second compound 3 µM, first compound 0.1 µM
[27] = second compound 3 µM, first compound 0.316 µM
[28] = second compound 3 µM, first compound 1 µM
[29] = second compound 3 µM, first compound 3.16 µM
[30] = second compound 3 µM, first compound 10 µM
[31] = second compound 0.1 µM, first compound 0.0316 µM
[32] = second compound 0.1 µM, first compound 0.1 µM
[33] = second compound 0.1 µM, first compound 0.316 µM
[34] = second compound 0.1 µM, first compound 1 µM
[35] = second compound 0.1 µM, first compound 3.16 µM
[36] = second compound 0.1 µM, first compound 10 µM
[37] = second compound 0.316 µM, first compound 0.0316 µM
[38] = second compound 0.316 µM, first compound 0.1 µM
[39] = second compound 0.316 µM, first compound 0.316 µM
[40] = second compound 0.316 µM, first compound 1 µM
[41] = second compound 0.316 µM, first compound 3.16 µM
[42] = second compound 0.316 µM, first compound 10 µM
[43] = second compound 1 µM, first compound 0.0316 µM
[44] = second compound 1 µM, first compound 0.1 µM
[45] = second compound 1 µM, first compound 0.316 µM
[46] = second compound 1 µM, first compound 1 µM
[47] = second compound 1 µM, first compound 3.16 µM
[48] = second compound 1 µM, first compound 10 µM
[49] = second compound 3.16 µM, first compound 0.0316 µM
[50] = second compound 3.16 µM, first compound 0.1 µM
[51] = second compound 3.16 µM, first compound 0.316 µM
[52] = second compound 3.16 µM, first compound 1 µM
[53] = second compound 3.16 µM, first compound 3.16 µM
[54] = second compound 3.16 µM, first compound 10 µM
[55] = second compound 10 µM, first compound 0.0316 µM
[56] = second compound 10 µM, first compound 0.1 µM
[57] = second compound 10 µM, first compound 0.316 µM
[58] = second compound 10 µM, first compound 1 µM
[59] = second compound 10 µM, first compound 3.16 µM
[60] = second compound 10 µM, first compound 10 µM

C=CC(=O)N1CCN(c2nc(=O)n(-c3c(C)ccnc3C(C)C)c3nc(-c4c(O)cccc4F)c(F)cc23)C(C)C1 (stereo not given) + CCN1C(C(=O)NC23CCC(C(=O)O)(CC2)CC3)C(c2cccc(Cl)c2F)C2(C(=O)Nc3cc(Cl)ccc32)C12CCCCC2
> 10 µM: IC50 (second compound 0.03 µM) | IC50 (second compound 0.0949 µM) | IC50 (second compound 0.3 µM) | IC50 (second compound 0.949 µM) | IC50 (second compound 3 µM)
inactive: viability, T/C [1] 70.7% | viability, T/C [2] 108% | viability, T/C [3] 81% | viability, T/C [4] 100% | viability, T/C [5] 90.2% | viability, T/C [6] 98.3% | viability, T/C [7] 117% | viability, T/C [8] 117% | viability, T/C [9] 98.5% | viability, T/C [10] 105% | viability, T/C [11] 96.8% | viability, T/C [12] 89.5% | viability, T/C [13] 90.3% | viability, T/C [14] 103% | viability, T/C [15] 91.5% | viability, T/C [16] 101% | viability, T/C [17] 98.4% | viability, T/C [18] 95.6% | viability, T/C [19] 100% | viability, T/C [20] 107% | viability, T/C [21] 109% | viability, T/C [22] 104% | viability, T/C [23] 91.3% | viability, T/C [24] 92.4% | viability, T/C [25] 116% | viability, T/C [26] 97.8% | viability, T/C [27] 85.3% | viability, T/C [28] 101% | viability, T/C [29] 103% | viability, T/C [30] 79.2%

C#Cc1c(F)ccc2cc(O)cc(-c3ncc4c(N5CC6CCC(C5)N6)nc(OCC56CCCN5CC(F)C6)nc4c3F)c12 (stereo not given) + CCN1C(C(=O)NC23CCC(C(=O)O)(CC2)CC3)C(c2cccc(Cl)c2F)C2(C(=O)Nc3cc(Cl)ccc32)C12CCCCC2
> 10 µM: IC50 (second compound 0.03 µM) | IC50 (second compound 0.0949 µM) | IC50 (second compound 0.3 µM) | IC50 (second compound 0.949 µM) | IC50 (second compound 3 µM)
inactive: viability, T/C [1] 118% | viability, T/C [2] 98.2% | viability, T/C [3] 92.6% | viability, T/C [4] 92.1% | viability, T/C [5] 105% | viability, T/C [6] 110% | viability, T/C [7] 93.8% | viability, T/C [8] 100% | viability, T/C [9] 103% | viability, T/C [10] 100% | viability, T/C [11] 103% | viability, T/C [12] 95.4% | viability, T/C [13] 109% | viability, T/C [14] 113% | viability, T/C [15] 92.5% | viability, T/C [16] 107% | viability, T/C [17] 91.4% | viability, T/C [18] 87.6% | viability, T/C [19] 93% | viability, T/C [20] 108% | viability, T/C [21] 98% | viability, T/C [22] 109% | viability, T/C [23] 106% | viability, T/C [24] 95.1% | viability, T/C [25] 110% | viability, T/C [26] 107% | viability, T/C [27] 114% | viability, T/C [28] 99.9% | viability, T/C [29] 101% | viability, T/C [30] 102%

C=C(F)C(=O)N1CCN(c2nc(OCC3CCCN3C)nc3c2CCN(c2cccc4cccc(Cl)c24)C3)CC1CC#N (stereo not given) + Cc1c(S(C)(=O)=O)c(-c2cc(F)cc(N3CCN(c4ccc(NS(=O)(=O)c5ccc(NC(CCN6CCC(C(=O)OCCCP(=O)(O)O)CC6)CSc6ccccc6)c(S(=O)(=O)C(F)(F)F)c5)cc4)CC3)c2)c(-c2ccc(Cl)cc2)n1C(C)C
0.905 µM: IC50 (second compound 0.316 µM)
active: viability, T/C [35] 0.61% | viability, T/C [36] 0.12% | viability, T/C [41] 0.67% | viability, T/C [42] 0.11% | viability, T/C [47] 0.13% | viability, T/C [48] 0.11% | viability, T/C [53] 0.11% | viability, T/C [54] 0.14% | viability, T/C [59] 0.8% | viability, T/C [60] 0.19%
0.761 µM: IC50 (second compound 1 µM)
0.693 µM: IC50 (second compound 0.1 µM)
0.961 µM: IC50 (second compound 3.16 µM)
0.546 µM: IC50 (second compound 10 µM)
inactive: viability, T/C [31] 103% | viability, T/C [32] 85.7% | viability, T/C [33] 86% | viability, T/C [34] 33.7% | viability, T/C [37] 105% | viability, T/C [38] 95% | viability, T/C [39] 86.2% | viability, T/C [40] 48.9% | viability, T/C [43] 113% | viability, T/C [44] 125% | viability, T/C [45] 99.8% | viability, T/C [46] 34.8% | viability, T/C [49] 118% | viability, T/C [50] 110% | viability, T/C [51] 94.1% | viability, T/C [52] 52.2% | viability, T/C [55] 86.2% | viability, T/C [56] 103% | viability, T/C [57] 80.6% | viability, T/C [58] 15.6%

C#Cc1c(F)ccc2cc(O)cc(-c3ncc4c(N5CC6CCC(C5)N6)nc(OCC56CCCN5CC(F)C6)nc4c3F)c12 (stereo not given) + Cc1c(S(C)(=O)=O)c(-c2cc(F)cc(N3CCN(c4ccc(NS(=O)(=O)c5ccc(NC(CCN6CCC(C(=O)OCCCP(=O)(O)O)CC6)CSc6ccccc6)c(S(=O)(=O)C(F)(F)F)c5)cc4)CC3)c2)c(-c2ccc(Cl)cc2)n1C(C)C
6.6 µM: IC50 (second compound 10 µM)
> 10 µM: IC50 (second compound 0.1 µM) | IC50 (second compound 0.316 µM) | IC50 (second compound 1 µM) | IC50 (second compound 3.16 µM)
inactive: viability, T/C [31] 119% | viability, T/C [32] 121% | viability, T/C [33] 103% | viability, T/C [34] 81.1% | viability, T/C [35] 93.4% | viability, T/C [36] 109% | viability, T/C [37] 112% | viability, T/C [38] 104% | viability, T/C [39] 105% | viability, T/C [40] 91.7% | viability, T/C [41] 89.9% | viability, T/C [42] 73% | viability, T/C [43] 105% | viability, T/C [44] 121% | viability, T/C [45] 119% | viability, T/C [46] 109% | viability, T/C [47] 108% | viability, T/C [48] 73% | viability, T/C [49] 108% | viability, T/C [50] 101% | viability, T/C [51] 110% | viability, T/C [52] 115% | viability, T/C [53] 109% | viability, T/C [54] 77% | viability, T/C [55] 102% | viability, T/C [56] 89.3% | viability, T/C [57] 113% | viability, T/C [58] 70.3% | viability, T/C [59] 74.3% | viability, T/C [60] 38.5%
